{"source": "patent US20250339409A1", "about": "“USES OF PAN BET INHIBITORS” (VYNE THERAPEUTICS INC., priority 2021, published 2025)", "key": {"[1]": {"tested_on": "IL4, IL13, IL31, CCL17, CCL26, CCL2 gene expression in Th2 stimulated human skin", "assay": "Th2 stimulated human skin explants, RT-qPCR of biomarkers", "type": "cell-based", "details": "Homo sapiens, calculated to Th2 stimulated control; for inhibition at 2.5 µM: 2.50 μM", "excerpt": "(§1) Human skin biopsy tissue was stimulated to induce a Th17 immuno-phenotype using a method derived from Feghali-Bostwick et al. Induction of a Th17 phenotype in human skin—a mimic of dermal inflammatory diseases, Methods and Protocols, 2, 45 (2019). The pharmacodynamic assay described therein involves a similar paradigm to elicit a Th2 response and is used to evaluate the therapeutic potential of the active compounds (e.g., BETi1; and\n(§2) Freshly excised healthy human skin tissue from abdominoplasties is defatted, cleaned and sectioned into 7 mm biopsies. The biopsies are placed in Transwell® inserts with the epidermis apical and exposed to air and the dermis submerged in media in the basal chamber. The biopsies are pre-treated overnight at 37° C., 5% CO2 with different compounds and controls added to the media in the basal chamber.\n(§3) The next day, contents of the basal chamber is replaced with fresh media containing the test compound (listed below) and a stimulation cocktail for either Th2 inflammation (proprietary of service provider cocktail) or Th17 inflammation (mix of antibodies against CD3, CD28, IL-4, IFNγ and recombinant IL-1β, IL-6, IL-21, TGF-β). The biopsies are incubated at 37° C., 5% CO2 for a further 24 hrs.\n(§4) A list of all the treatments is provided below: • 1. Untreated control (for both stimulations) • 2. Th2 stimulated control • 3. Th17 stimulated control • 4. Th2+BETia at 0.01, 0.04, 0.16, 0.63, 2.50, and 10 μM • 5. Th2+BETi1 at 0.01, 0.04, 0.16, 0.63, 2.50, and 10 μM • 6. Th2+Ruxolitinib at 0.01, 0.04, 0.16, 0.63, 2.50, and 10 μM • 7. Th2+betamethasone valerate 210 μM (equivalent to 0.01%) • 8. Th17+BETia at 10 μM • 9. Th17+BETi1 at 10 μM • 10. Th17+Ruxolitinib at 10 μM • 11. Th17+betamethasone valerate 210 μM (equivalent to 0.01%)\n(§5) After harvesting, the biopsies are cut in half, and one half is homogenized and used for RNA extraction by standard methods and inflammatory pathways is assessed by RT-qPCR. The ability of BETi1 or BETia to inhibit the activity of up to six biomarkers per stimulation is reported as percent activity calculated to stimulated control and fold change in gene expression calculated to untreated control with respect to Th2 (IL4, IL13, IL31, CCL17, CCL26, CCL2) and Th17 (CXCL10, IL17α, IL22, IL36γ, CCL20, SerpinB4). Statistical analysis is performed on data sets from all 3 donors combined and compares the percent inhibition of each biomarker by each treatment calculated to its respective vehicle.\n(§6) qPCR values were calculated using the relative quantification approach outlined by Livak, et al (2001) (Section 9, Reference 2). The Ct values (threshold cycle) defined as the fractional cycle number at which the amount of amplified target reaches a fixed threshold, were normalised to the Ct value of an internal biomarker or ‘housekeeping gene’ (GAPDH). The higher limit of detection was set at a Ct value of 40, and any target having not reached Ct by 40 cycles was set to this value. The delta Ct values (dt(Ct)) refers to the Ct of the gene of interest minus the Ct of the internal biomarker. The ddt(Ct) is the dt(Ct) value of the gene minus the average dt(Ct) value of the untreated samples. The ddt(Ct) is converted to power by the equation; =power(2,dt(Ct)). Fold change was calculated as ratio of the power of the gene of interest divided by the average power of the untreated samples. This normalizes the untreated samplers to a value of 1. For the comparison of multiple skin donors, the stimulated samples were normalized to 100% maximum activity (such to normalize variability between different skin donors). Percent activity was calculated as the percent increase or decrease in stimulation compared to the stimulated samples set at 100% maximum activity. Percent change was calculated as: Inhibition=(100−(avg % activity/stimulated)*100). Statistical analysis was performed using One-way ANOVA with Dunnett's Multiple Comparisons (non parametric). […]"}, "[2]": {"tested_on": "CXCL10, IL17α, IL22, IL36γ, CCL20, SerpinB4 gene expression in Th17 stimulated human skin", "assay": "Th17 stimulated human skin explants, RT-qPCR of biomarkers", "type": "cell-based", "details": "Homo sapiens, 10 μM, calculated to Th17 stimulated control, three skin donors", "excerpt": "as §1, §2, §3, §4, §5, §6"}}, "note": "Read-outs that look alike come from different tables or passages of the source."}
{"smiles": "CCNC(=O)c1cc2c(-c3ccn(C)c(=O)c3Oc3c(C)cc(F)cc3C)cn(C)c(=O)c2[nH]1", "note": "[BETia]", "values": [{"measurement": "inhibition at 0.01 µM", "setting": "[1]; read-out: % Inhibition CCL17", "result": 28.2, "unit": "%"}, {"measurement": "inhibition at 0.01 µM", "setting": "[1]; read-out: % Inhibition CCL26", "result": 8.3, "unit": "%"}, {"measurement": "inhibition at 0.01 µM", "setting": "[1]; read-out: % Inhibition IL31", "result": "< 0", "unit": "%"}, {"measurement": "inhibition at 0.01 µM", "setting": "[1]; read-out: % inhibition CCL2", "result": "< 0", "unit": "%"}, {"measurement": "inhibition at 0.01 µM", "setting": "[1]; read-out: % inhibition IL4", "result": "< 0", "unit": "%"}, {"measurement": "inhibition at 0.01 µM", "setting": "[1]; read-out: % inhibition IL13", "result": 22, "unit": "%"}, {"measurement": "inhibition at 0.04 µM", "setting": "[1]; read-out: % Inhibition CCL26", "result": "~38", "unit": "%"}, {"measurement": "inhibition at 0.04 µM", "setting": "[1]; read-out: % Inhibition IL31", "result": "< 0", "unit": "%"}, {"measurement": "inhibition at 0.04 µM", "setting": "[1]; read-out: % inhibition CCL2", "result": "< 0", "unit": "%"}, {"measurement": "inhibition at 0.04 µM", "setting": "[1]; read-out: % inhibition IL4", "result": "< 0", "unit": "%"}, {"measurement": "inhibition at 0.04 µM", "setting": "[1]; read-out: % inhibition IL13", "result": 15.8, "unit": "%"}, {"measurement": "inhibition at 0.16 µM", "setting": "[1]; read-out: % Inhibition CCL17", "result": 31.8, "unit": "%"}, {"measurement": "inhibition at 0.16 µM", "setting": "[1]; read-out: % Inhibition CCL26", "result": 46.3, "unit": "%"}, {"measurement": "inhibition at 0.16 µM", "setting": "[1]; read-out: % Inhibition IL31", "result": 19.1, "unit": "%"}, {"measurement": "inhibition at 0.16 µM", "setting": "[1]; read-out: % inhibition CCL2", "result": "< 0", "unit": "%"}, {"measurement": "inhibition at 0.16 µM", "setting": "[1]; read-out: % inhibition IL4", "result": 56.8, "unit": "%"}, {"measurement": "inhibition at 0.16 µM", "setting": "[1]; read-out: % inhibition IL13", "result": 27.7, "unit": "%"}, {"measurement": "inhibition at 0.63 µM", "setting": "[1]; read-out: % Inhibition CCL17", "result": 25.4, "unit": "%"}, {"measurement": "inhibition at 0.63 µM", "setting": "[1]; read-out: % Inhibition CCL26", "result": 2.8, "unit": "%"}, {"measurement": "inhibition at 0.63 µM", "setting": "[1]; read-out: % inhibition CCL2", "result": "< 0", "unit": "%"}, {"measurement": "inhibition at 0.63 µM", "setting": "[1]; read-out: % inhibition IL13", "result": 22.3, "unit": "%"}, {"measurement": "inhibition at 2.5 µM", "setting": "[1]; read-out: % Inhibition CCL17", "result": 30, "unit": "%"}, {"measurement": "inhibition at 2.5 µM", "setting": "[1]; read-out: % Inhibition CCL26", "result": 8, "unit": "%"}, {"measurement": "inhibition at 2.5 µM", "setting": "[1]; read-out: % inhibition CCL2", "result": "< 0", "unit": "%"}, {"measurement": "inhibition at 2.5 µM", "setting": "[1]; read-out: % inhibition IL4", "result": 57.5, "unit": "%"}, {"measurement": "inhibition at 2.5 µM", "setting": "[1]; read-out: % inhibition IL13", "result": 24.9, "unit": "%"}, {"measurement": "inhibition at 10 µM", "setting": "[1]; read-out: % Inhibition CCL26", "result": "~8", "unit": "%"}, {"measurement": "inhibition at 10 µM", "setting": "[1]; read-out: % inhibition CCL2", "result": 21.5, "unit": "%"}, {"measurement": "inhibition at 10 µM", "setting": "[1]; read-out: % inhibition IL4", "result": "~76", "unit": "%"}, {"measurement": "inhibition at 10 µM", "setting": "[1]; read-out: % inhibition IL13", "result": 53.4, "unit": "%"}, {"measurement": "inhibition at 10 µM", "setting": "[2]; read-out: % inhibition CCL20", "result": 40.1, "unit": "%"}, {"measurement": "inhibition at 10 µM", "setting": "[2]; read-out: % inhibition CXCL10", "result": 71.3, "unit": "%"}, {"measurement": "inhibition at 10 µM", "setting": "[2]; read-out: % inhibition IL22", "result": 79.7, "unit": "%"}, {"measurement": "inhibition at 10 µM", "setting": "[2]; read-out: % inhibition IL36γ", "result": 78.2, "unit": "%"}, {"measurement": "inhibition at 10 µM", "setting": "[2]; read-out: % inhibition Serpinβ4", "result": 71.2, "unit": "%"}]}
